Data: ChEMBL document CHEMBL2150864 (Eur J Med Chem, 2012)

How the values were obtained:
[1] = target: Vascular endothelial growth factor receptor 2 (Homo sapiens, UniProt P35968); test: Binding affinity to DNA-tagged VEGFR2 by qPCR based competitive binding assay
[2] = Cytotoxicity against VEGFR expressing HAEC after 72 hrs by MTT assay; type: functional, Homo sapiens
HT-29 = test: Cytotoxicity against VEGFR expressing human HT-29 cells after 72 hrs by MTT assay; type: functional, cell-based; settings: HT-29, 72 h
[3] = Metabolic stability in Wistar rat plasma at 39 MBq, iv after 60 mins; type: ADME, organism-based; settings: read-out: Stability

Chain of Vascular endothelial growth factor receptor 2 (P35968 whole entry): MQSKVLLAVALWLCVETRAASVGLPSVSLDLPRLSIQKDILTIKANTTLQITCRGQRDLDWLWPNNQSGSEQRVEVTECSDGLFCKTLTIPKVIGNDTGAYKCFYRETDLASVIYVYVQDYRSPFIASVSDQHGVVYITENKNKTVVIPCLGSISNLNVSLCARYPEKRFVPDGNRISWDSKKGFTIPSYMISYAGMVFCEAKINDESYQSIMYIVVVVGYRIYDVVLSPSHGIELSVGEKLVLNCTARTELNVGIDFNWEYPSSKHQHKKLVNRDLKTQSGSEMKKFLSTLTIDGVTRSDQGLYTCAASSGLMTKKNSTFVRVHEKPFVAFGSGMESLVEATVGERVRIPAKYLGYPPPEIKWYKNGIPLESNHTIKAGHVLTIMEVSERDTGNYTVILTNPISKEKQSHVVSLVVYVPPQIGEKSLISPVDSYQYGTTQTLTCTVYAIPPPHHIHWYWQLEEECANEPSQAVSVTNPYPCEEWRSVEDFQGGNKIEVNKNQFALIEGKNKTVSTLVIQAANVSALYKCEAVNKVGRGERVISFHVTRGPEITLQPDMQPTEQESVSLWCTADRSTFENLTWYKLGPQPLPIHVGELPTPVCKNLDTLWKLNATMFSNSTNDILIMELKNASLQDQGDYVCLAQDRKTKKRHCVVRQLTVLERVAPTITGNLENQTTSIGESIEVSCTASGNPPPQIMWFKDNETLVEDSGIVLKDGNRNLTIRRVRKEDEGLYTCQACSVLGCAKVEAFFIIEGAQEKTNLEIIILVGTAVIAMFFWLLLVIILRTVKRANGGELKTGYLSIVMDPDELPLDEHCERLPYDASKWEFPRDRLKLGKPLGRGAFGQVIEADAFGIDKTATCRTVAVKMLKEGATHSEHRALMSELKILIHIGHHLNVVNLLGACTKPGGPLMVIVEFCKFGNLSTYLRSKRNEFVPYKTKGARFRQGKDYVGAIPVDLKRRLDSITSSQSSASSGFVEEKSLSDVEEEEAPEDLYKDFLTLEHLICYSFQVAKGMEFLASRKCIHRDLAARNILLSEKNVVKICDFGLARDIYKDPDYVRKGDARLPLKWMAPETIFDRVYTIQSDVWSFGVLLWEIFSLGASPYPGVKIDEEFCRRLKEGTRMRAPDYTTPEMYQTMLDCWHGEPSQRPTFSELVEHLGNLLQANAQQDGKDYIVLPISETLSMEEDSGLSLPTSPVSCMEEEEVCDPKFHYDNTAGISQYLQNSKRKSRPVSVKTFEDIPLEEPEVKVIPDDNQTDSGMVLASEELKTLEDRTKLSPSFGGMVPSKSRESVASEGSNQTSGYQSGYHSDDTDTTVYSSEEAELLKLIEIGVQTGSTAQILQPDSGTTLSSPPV

CCN(CC)CCNC(=O)c1c(C)[nH]c(/C=C2\C(=O)Nc3ccc(OC)cc32)c1C
Kd [1]: 0.02 µM
IC50 [2]: 54.8 µM
IC50 (HT-29): 7.88 µM

CCN(CC)CCNC(=O)c1c(C)[nH]c(/C=C2\C(=O)Nc3ccc(O[11CH3])cc32)c1C
remaining at 1 h [3]: > 70%

CCN(CC)CCNC(=O)c1c(C)[nH]c(/C=C2\C(=O)Nc3ccc(F)cc32)c1C [SUNITINIB]
IC50 [2]: 0.1 µM
